Test results: patent US20140378378A1, “ERYTHROPOIETIN-DERIVED PEPTIDE AND USE THEREFOR” (priority 2011, published 2014)

Tested on: cardiomyocytes
Assay: Cell survival of cardiomyocytes, MTT assay, 72 hours in PBS free of serum and nutrients, hypoxic condition
Format: cell-based, Wister rat
Settings: 0 nM = 100%
Experimental: An 8 weeks old Wister rat was injected with ketamine and pentobarbital to quickly kill the […], and the heart was quickly separated from the mouse. An aorta was used to perfuse with Ca free Krebs-Henseleit buffer (KHB) solution, which was pre-heated to a temperature of about 34° C. to about 37° C., in heart direction. Thereafter, the KHB solution was switched to Hank's balanced salt solution (HBSS:GIBCO, Grand Island, N.Y.) containing 0.15% class II collagenase (Cooper Biomedical, Malvern, Pa.) and then perfused for about 30 to about 40 minutes. Thereafter, the product obtained therefrom was washed twice with a cell culture medium (Dulbecco's modified Eagle's medium, DMEM). Ventricles and atria were separated therefrom, ventricular tissues were thoroughly chopped and then stirred thoroughly for about 5 minutes in a shaker filled with cell culture medium (DMEM) containing class II collagenase that was pre-heated to a temperature of about 34° C. to about 37° C. Connective tissues that were not dissolved were filtered and a collagenase-containing solution was washed twice with the cell culture medium (DMEM). The product obtained therefrom was gently centrifuged at a speed of 10 g for 2 minutes, a supernatant obtained therefrom was separated and removed, and cell components were washed three times with a cell culture medium (DMEM) solution containing 1% fetal bovine serum (FBS; Sigma Chemical, St. Louis, Mo.). Thereafter, the cells obtained therefrom were stabilized in a cell culture medium (DMEM), 10% FBS, 10 mM N-2-hydroxyethylpiperazine-N′-2-ethanesulfonic acid (HEPES, GIBCO Laboratories, Grand Island, N.Y.), 2 mM L-glutamine, penicilin-stereptomycin (100 IU/mL, GIBCO) for 60 minutes.
Thereafter, the cells were divided in a 6-well plate at a density of 20×10^3 cells/cm^2 and then bromodeoxyuridine (BrdU, 10 uM, Sigma-Aldrich) was added to the cell culture medium over 3 days to prevent the proliferation of fibroblasts and progenitor cells (Lokuta et al, 1994; Miragoli et al., 2006). The cells were cultured in an incubator under conditions of 95% of O2, 5% of CO2, and a temperature of 37° C. for the next experiment.
Cells were seeded in a 96-well plate at a density of 2×10^4 cells/well and 200 ul for each well. In this regard, cell confluence was set at about 70% to about 80%. After 24 hours, when the cells have been stabilized, a 26 gauge or 28 gauge needle was used to remove a preexisting medium from the wells. 200 ul of PBS free of serum and nutrients was added to each well, the wells were divided into erythropoietin (EPO) treatment groups and MKX-2 treatment groups, which were further divided into experimental groups according to concentrations of 0 nM, 0.1 nM, 1 nM, 10 nM, 100 nM, and 1000 nM and then treated with a drug for 72 hours in a hypoxic condition, and then the cells were subjected to an MTT assay to compare cell survival rates. The EPO used was an Eporon injection (Dong-A Pharmaceuticals, Korea). All experimental groups for each concentration included 7 wells.
After a predetermined treatment time, 3-[4,5-dimethylthiazol-2-yl]-2,5-diphenyl tetrazolium bromide (MIT, Sigma, M2128) that was dissolved in a phosphate buffered saline (PBS) and then sterilization filtered by using a membrane filter having a thickness of 0.22 um was added to each well in an amount of 100 ul at a concentration of 1 mg/ml. In this regard, an MTT reagent was used after wrapping the MTT reagent with a foil sheet to block from light. […]

With “EPO: erythropoietin; the EPO used was an Eporon injection (Dong-A Pharmaceuticals, Korea)” the “cell survival rate compared with 0 nM” value (0.1 nM) was “not substantially different”, the “cell survival rate compared with the initial condition” value (1 nM) was “substantially decreased” and the cell survival rate (10 nM) was 94.52 ± 4.36%. The cell survival rate (100 nM) was 102.64 ± 2.69% and the cell survival rate (1000 nM) was 106.97 ± 1.99%.
